We go through 2 compounds from BindingDB's records for doi:10.1016/j.bmcl.2017.08.049 (Renmin Hospital of Wuhan University, 2018).

The assay in a line: Inhibition of HIV1 3B gp41-induced cell-cell fusion between viral protein expressing human H9 cells and MT-2 target cells assessed as number of syncytia formation treated for 2 hrs measured after 6 hrs.

The structures appear in SMILES notation.

For `Cc1cc2c(c(O)c1-c1c(C)cc3c(c1O)/C(=C/NC(C)S(=O)(=O)O)C(=O)C(O)=C3C(C)C)/C(=C/NC(C)S(=O)(=O)O)C(=O)C(O)=C2C(C)C` (configuration not stated), the IC50 (in general, the concentration that inhibits the measured activity by half) was found to be 6.67 µM.
As for `Cc1cc2c(c(O)c1-c1c(C)cc3c(c1O)/C(=C/NC(C)C(=O)NC(C)C(=O)O)C(=O)C(O)=C3C(C)C)/C(=C/NC(C)C(=O)NC(C)C(=O)O)C(=O)C(O)=C2C(C)C` (configuration not stated), the figure is 7.14 µM.
